Measurements: PubChem BioAssay AID328 (DTP/NCI, 2004)
Several values for one entry are separate records, joined by “and”; a condition that tells them apart may be missing. Identical values can stand only once. Toxic doses and inconclusive results are not listed.

System: BDF1 mice, P388 leukemia ip, median survival T/C
Assay: NCI In Vivo Anticancer Drug Screen. Data for tumor model P388 Leukemia (intraperitoneal) in B6D2F1 (BDF1) mice
Details: endpoint: median survival time, higher = longer survival
Summary of the method: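 Each value expresses how treatment altered survival: treated-mouse outcome over vehicle-mouse outcome, both groups bearing the transplanted tumour.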

[1] = dose: 100.0 mg/kg/injection, schedule: Q01DX009 (ip), vehicle: saline with Tween-80
[2] = dose: 100.0 mg/kg/injection, schedule: Q04DX003 (ip), vehicle: saline with Tween-80
[3] = dose: 200.0 mg/kg/injection, schedule: Q01DX009 (ip), vehicle: saline with Tween-80
[4] = dose: 200.0 mg/kg/injection, schedule: Q04DX003 (ip), vehicle: saline with Tween-80
[5] = dose: 400.0 mg/kg/injection, schedule: Q04DX003 (ip), vehicle: saline with Tween-80
[6] = dose: 37.5 mg/kg/injection, schedule: Q01DX009 (ip), vehicle: saline
[7] = dose: 100.0 mg/kg/injection, schedule: Q04DX003 (ip), vehicle: saline
[8] = dose: 50.0 mg/kg/injection, schedule: Q01DX009 (ip), vehicle: saline with Tween-80
[9] = dose: 25.0 mg/kg/injection, schedule: Q01DX009 (ip), vehicle: saline with Tween-80
[10] = dose: 50.0 mg/kg/injection, schedule: Q01DX005 (ip), vehicle: saline with Tween-80
[11] = dose: 100.0 mg/kg/injection, schedule: Q01DX005 (ip), vehicle: saline with Tween-80
[12] = dose: 200.0 mg/kg/injection, schedule: Q01DX005 (ip), vehicle: saline with Tween-80
[13] = dose: 100.0 mg/kg/injection, schedule: Q01DX001 (ip), vehicle: Klucel (hydroxypropylcellulose) (HPC)
[14] = dose: 200.0 mg/kg/injection, schedule: Q01DX001 (ip), vehicle: Klucel (hydroxypropylcellulose) (HPC)
[15] = dose: 400.0 mg/kg/injection, schedule: Q01DX001 (ip), vehicle: Klucel (hydroxypropylcellulose) (HPC)
[16] = dose: 50.0 mg/kg/injection, schedule: Q04DX003 (ip), vehicle: saline with Tween-80

CC(=O)c1ccc2ccccc2c1O
T/C (dose: 100.0 mg/kg/injection, schedule: Q01DX001 (ip), vehicle: other): 90 % of control
T/C [1]: 104 % of control
T/C [2]: 109 % of control
T/C (dose: 175.0 mg/kg/injection, schedule: Q01DX009 (ip), vehicle: saline with Tween-80): 122 % of control
T/C (dose: 200.0 mg/kg/injection, schedule: Q01DX001 (ip), vehicle: other): 100 % of control
T/C [3]: 104 % of control
T/C [4]: 104 % of control
T/C (dose: 400.0 mg/kg/injection, schedule: Q01DX001 (ip), vehicle: other): 95 % of control
T/C (dose: 400.0 mg/kg/injection, schedule: Q01DX009 (ip), vehicle: saline with Tween-80): 118 % of control
T/C [5]: 104 % of control
T/C (dose: 600.0 mg/kg/injection, schedule: Q01DX009 (ip), vehicle: saline with Tween-80): 113 % of control

CC1CN1P(=O)(N1CCCC1)N1CC1C (configuration not stated)
T/C (dose: 12.5 mg/kg/injection, schedule: Q04DX003 (ip), vehicle: saline): 102 % of control
T/C (dose: 25.0 mg/kg/injection, schedule: Q01DX009 (ip), vehicle: saline): 156 % of control
T/C (dose: 25.0 mg/kg/injection, schedule: Q04DX003 (ip), vehicle: saline): 105 % of control
T/C (dose: 32.0 mg/kg/injection, schedule: Q01DX009 (ip), vehicle: saline): 155 % of control
T/C [6]: 173 % of control
T/C (dose: 50.0 mg/kg/injection, schedule: Q04DX003 (ip), vehicle: saline): 169 % of control
T/C (dose: 64.0 mg/kg/injection, schedule: Q01DX009 (ip), vehicle: saline): 87 % of control
T/C [7]: 179 % of control

CCCCNC(C)(C)C(SSSC(c1ccc(C(F)(F)F)cc1)C(C)(C)NCCCC)c1ccc(C(F)(F)F)cc1 (configuration not stated)
T/C [7]: 120 % of control
T/C (dose: 400.0 mg/kg/injection, schedule: Q04DX003 (ip), vehicle: saline): 120 % of control

c1ccc2c(NCCCCCCNc3c4ccccc4nc4ccccc34)c3ccccc3nc2c1
T/C (dose: 0.31 mg/kg/injection, schedule: Q01DX009 (ip), vehicle: lactic acid): 110 % of control
T/C (dose: 0.62 mg/kg/injection, schedule: Q01DX009 (ip), vehicle: lactic acid): 123 % of control
T/C (dose: 1.25 mg/kg/injection, schedule: Q01DX009 (ip), vehicle: lactic acid): 163 % of control
T/C (dose: 2.5 mg/kg/injection, schedule: Q01DX009 (ip), vehicle: lactic acid): 180 % of control
T/C (dose: 5.0 mg/kg/injection, schedule: Q01DX009 (ip), vehicle: lactic acid): 178 % of control

CCN(CC)CCCC(C)Nc1c2ccc(Cl)cc2nc2ccc(OC)cc12 (configuration not stated)
T/C (dose: 9.37 mg/kg/injection, schedule: Q01DX009 (ip), vehicle: saline): 86 % of control
T/C (dose: 18.75 mg/kg/injection, schedule: Q01DX009 (ip), vehicle: saline): 90 % of control
T/C [6]: 100 % of control and 109 % of control
T/C (dose: 75.0 mg/kg/injection, schedule: Q01DX009 (ip), vehicle: saline): 118 % of control and 120 % of control
T/C (dose: 75.0 mg/kg/injection, schedule: Q04DX003 (ip), vehicle: saline): 104 % of control
T/C (dose: 99.0 mg/kg/injection, schedule: Q04DX003 (ip), vehicle: saline): 150 % of control
T/C (dose: 150.0 mg/kg/injection, schedule: Q04DX003 (ip), vehicle: saline): 172 % of control

CCCCCCC(=O)CC(SCC)c1ccccc1Cl (configuration not stated)
T/C [8]: 93 % of control
T/C [1]: 107 % of control
T/C [3]: 121 % of control

CN(C)P(=O)(Oc1ccccc1)N(C)C
T/C [9]: 94 % of control
T/C [8]: 120 % of control
T/C [1]: 102 % of control and 103 % of control
T/C [3]: 100 % of control

[Cl][Pd][Cl].[NH-]CC[NH-]
T/C (dose: 6.0 mg/kg/injection, schedule: Q01DX009 (ip), vehicle: saline with Tween-80): 104 % of control
T/C (dose: 12.0 mg/kg/injection, schedule: Q01DX009 (ip), vehicle: saline with Tween-80): 104 % of control
T/C [9]: 100 % of control
T/C [1]: 118 % of control
T/C [2]: 100 % of control
T/C [4]: 118 % of control
T/C [5]: 113 % of control

COc1cc2c(cc1OC)[C@H]1Cc3cc(OC)c(OC)cc3[C@@H](C2)N1C(C)=O
T/C [10]: 91 % of control
T/C [11]: 91 % of control
T/C [12]: 93 % of control

COc1ccc(Cl)cc1NC(=O)Nc1c(C)n(C)n(-c2ccccc2)c1=O
T/C [13]: 100 % of control
T/C [14]: 100 % of control
T/C [15]: 95 % of control

CCC(c1ccc(O)cc1)C(CC)c1ccc(OC)cc1 (configuration not stated)
T/C [8]: 104 % of control
T/C [1]: 118 % of control
T/C [3]: 109 % of control

O=C(c1ccccc1)c1ccccc1
T/C [13]: 100 % of control
T/C [14]: 100 % of control
T/C [15]: 116 % of control

CC1OC(OC2C(O)CC(OC3C(O)CC(OC4CCC5(C)C(CCC6C5CCC5(C)C(C7=CC(=O)OC7)CCC65O)C4)OC3C)OC2C)CC(O)C1O (configuration not stated)
T/C (dose: 0.63 mg/kg/injection, schedule: Q01DX010 (ip), vehicle: saline): 113 % of control
T/C (dose: 1.25 mg/kg/injection, schedule: Q01DX010 (ip), vehicle: saline): 100 % of control
T/C (dose: 2.5 mg/kg/injection, schedule: Q01DX010 (ip), vehicle: saline): 118 % of control
T/C (dose: 5.0 mg/kg/injection, schedule: Q01DX010 (ip), vehicle: saline): 100 % of control

NC(=O)NC(C(=O)O)(c1ccccc1)C1CCC1 (configuration not stated)
T/C [16]: 99 % of control
T/C [2]: 91 % of control
T/C [4]: 95 % of control
T/C [5]: 95 % of control

N#CC1=C(N)NC(=O)C(C(N)=O)C1c1ccccc1Cl (configuration not stated)
T/C [10]: 89 % of control
T/C [11]: 92 % of control
T/C [12]: 92 % of control

COc1cc2c3cc1Oc1c(OC)c(OC)cc4c1C(Cc1ccc(OC(C)=O)c(c1)Oc1ccc(cc1)CC3N(C)CC2)N(C)CC4 (configuration not stated)
T/C (dose: 12.5 mg/kg/injection, schedule: Q04DX003 (ip), vehicle: saline with Tween-80): 100 % of control
T/C (dose: 25.0 mg/kg/injection, schedule: Q04DX003 (ip), vehicle: saline with Tween-80): 109 % of control
T/C [16]: 100 % of control
T/C [4]: 95 % of control
T/C [5]: 90 % of control

CCOc1ccc(N2C(=O)CSC2=S)cc1
T/C [8]: 104 % of control
T/C [16]: 110 % of control
T/C [1]: 100 % of control
T/C [2]: 100 % of control
T/C [3]: 95 % of control
T/C [4]: 100 % of control

N#CCC(N)=C(C#N)C#N
T/C (dose: 25.0 mg/kg/injection, schedule: Q01DX009 (ip), vehicle: Klucel (hydroxypropylcellulose) (HPC)): 100 % of control
T/C (dose: 25.0 mg/kg/injection, schedule: Q04DX003 (ip), vehicle: Klucel (hydroxypropylcellulose) (HPC)): 95 % of control
T/C (dose: 50.0 mg/kg/injection, schedule: Q01DX009 (ip), vehicle: Klucel (hydroxypropylcellulose) (HPC)): 87 % of control
T/C (dose: 50.0 mg/kg/injection, schedule: Q04DX003 (ip), vehicle: Klucel (hydroxypropylcellulose) (HPC)): 104 % of control
T/C (dose: 100.0 mg/kg/injection, schedule: Q01DX009 (ip), vehicle: Klucel (hydroxypropylcellulose) (HPC)): 95 % of control
T/C (dose: 100.0 mg/kg/injection, schedule: Q04DX003 (ip), vehicle: Klucel (hydroxypropylcellulose) (HPC)): 100 % of control and 104 % of control
